Results as given in publication PMC12555108, “In‐vitro Assessment of BCRP‐Mediated Efflux of Antiseizure Medications in Human Blood‐Brain Barrier Cell Model” (Journal of Biochemical and Molecular Toxicology, 2025).

Columns and labels:
BCRP [1] = target: T1, BCRP (Homo sapiens, UniProt Q9UNQ0); assay: bidirectional transport assay across hCMEC/D3 cell monolayer with or without Ko143; settings: for transport by BCRP (conclusion of bidirectional transport assay): ER ≥ 1.5 and significantly reduced by Ko143; for Papp A→B at 2 h, 21 μM / Papp A→B at 2 h, 42 μM / Papp B→A at 2 h, 21 μM / Papp B→A at 2 h, 42 μM / efflux ratio at 2 h / efflux ratio at 2 h, 21 μM / efflux ratio at 2 h, 42 μM: human; for efflux ratio at 2 h: pH 7.4, Efflux ratio (ER) without inhibitor
T1 sequence (Q9UNQ0 1-655): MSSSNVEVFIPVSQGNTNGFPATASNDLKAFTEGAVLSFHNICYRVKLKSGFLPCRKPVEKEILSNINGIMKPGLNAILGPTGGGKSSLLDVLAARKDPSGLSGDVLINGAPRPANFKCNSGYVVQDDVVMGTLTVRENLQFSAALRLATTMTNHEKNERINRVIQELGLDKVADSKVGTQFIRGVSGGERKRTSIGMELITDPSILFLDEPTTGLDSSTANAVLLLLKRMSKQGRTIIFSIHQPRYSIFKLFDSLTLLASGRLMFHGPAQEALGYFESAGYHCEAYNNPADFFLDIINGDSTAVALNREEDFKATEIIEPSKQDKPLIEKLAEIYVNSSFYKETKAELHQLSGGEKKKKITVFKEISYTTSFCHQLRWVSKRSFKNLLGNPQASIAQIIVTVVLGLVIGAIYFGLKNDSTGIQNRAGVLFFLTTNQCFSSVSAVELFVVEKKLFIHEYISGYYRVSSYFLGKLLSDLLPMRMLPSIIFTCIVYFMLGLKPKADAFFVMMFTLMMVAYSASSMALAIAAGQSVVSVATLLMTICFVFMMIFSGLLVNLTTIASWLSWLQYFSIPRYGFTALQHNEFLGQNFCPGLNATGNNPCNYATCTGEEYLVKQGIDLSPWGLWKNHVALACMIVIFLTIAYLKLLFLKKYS
Procedure: For transport assays, hCMEC/D3 cells were seeded on collagen type I‐coated Transwell inserts (polycarbonate 12‐well, pore size […]) (cat. no. CLS3460; Corning, NY, USA) at 80% confluency and cultured as described in section 2.5. In brief, the drug was dissolved in Hanks’ balanced salt solution supplemented with 10 mM HEPES, 1 mM Na‐Pyruvate, pH 7.4 at 37°C (transport buffer). Initially, both sides of the chamber were washed with 1X PBS and the assay was performed with pre‐warmed transport buffer. 0.5 ml or 1.5 ml of the drug solution, with or without BCRP‐specific inhibitor Ko143 (1 μM) was added to either the apical side or basolateral side of the monolayer, respectively, and fresh transport buffer was added to the opposite side. Aliquots of 100 μl samples were taken from the opposite sides every 30 min for 2 h, and the same amount of fresh transport buffer was added to the same chamber after each sampling. […] Concentrations of ASMs were evaluated by HPLC or LC/MS. Apparent permeability (Papp) is defined as the transport rate of ASM and efflux ratio (ER) was calculated as the ratio of Papp in the basolateral‐to‐apical (Papp(B→A)) direction to the Papp in the apical‐to‐basolateral (Papp(A→B)) direction. The samples were stored at −20°C until analysis. […] Fluorescence detection of lucifer yellow (excitation at 430 nm, and emission at 535 nm) was carried out with Infinite 200 PRO NanoQuant (Tecan, Zurich, Switzerland). […] All transport assays were performed in triplicate.
The calculation for apparent permeability coefficient, Papp, was performed as described before. Papp=dQr/dt/A×C0 where dQr/dt is the cumulative amount in the receiver side vs time in μM/s
A is the area of the cell monolayer
C0 is the initial concentration of the dosing solution (μM).
And, Efflux ratio=Papp(B−to−A)/Papp(A−to−B)

BCRP [2] = target: T1, BCRP; assay: competitive substrate efflux assay (BODIPY-prazosin accumulation) in hCMEC/D3 cells; assay type: cell-based
Procedure: The potential of ASMs to compete with a known fluorescent substrate of BCRP, BPZ in hCMEC/D3 cells was examined using a competitive substrate efflux assay that has previously been used in various studies. The interaction of CBZ, DCLB, OXC, TPM, and LEVI with BCRP was evaluated. Initially, hCMEC/D3 were seeded in 12‐well plates (cat. no. 150628, Nunc, Thermo Fisher Scientific, MA, USA) at 70‐80% confluency for 24 h. In this study, Ko143 was used for BCRP inhibition. The cultured cells were incubated at 37°C for half an hour in media containing BPZ with either the test ASMs or Ko143. Cells were washed with chilled 1X PBS three times and again incubated at 37°C for 1 h 30 min in BPZ‐free media with or without Ko143. Cells were washed three times with ice‐cold 1X PBS to terminate the assay. Cell lysis was performed by adding 1% triton X‐100, followed by incubating the cells for 15 min at 37°C. 20 µl of cell lysate was placed in 384‐well black assay plates for fluorescence detection (excitation at 488 nm; emission at 530 nm) to Infinite 200 PRO NanoQuant (Tecan, Zurich, Switzerland). The rest of the cell lysate was used for determining protein levels using the BCA protein estimation method to normalize the observed fluorescence intensity with total protein yield. The data were shown as a fold increment in intracellular fluorescence of BPZ relative to the control.

BCRP [3] = target: T1, BCRP; design: host or cells: MCF-7 cells overexpressing BCRP; settings: previous study; cited from earlier work
[4] = design: method as in Johannessen, 2004; Patsalos, 2008; Lee, 2016; settings: patients with epilepsy; ref Johannessen, 2004; Patsalos, 2008; Lee, 2016; cited from earlier work
BCRP [5] = target: T1, BCRP; assay: vanadate-sensitive BCRP ATPase assay (membrane vesicles from MCF-7 cells overexpressing BCRP); assay type: biochemical; design: host or cells: MCF-7 cells overexpressing BCRP; settings: […] µM
Procedure: To assess the interaction between ASMs and BCRP, a vanadate‐sensitive ATPase assay was performed as per the manufacturer's instructions manual. […] After 10 min, 1x developer solution was added and kept for 2 min. To stop the reaction, 100 µL blocker solution was added and incubated for 30 min. at 37°C. The optical densities were measured at 620 nm using an Infinite 200 PRO NanoQuant (Tecan, Zurich, Switzerland) plate reader. 1 μM Ko143 was used as a positive control for BCRP inhibition. Ko143 was used at a concentration that is known to inhibit BCRP efficiently. The results were expressed as vanadate‐sensitive ATPase activity that is based on the difference in inorganic phosphate released between samples with and without vanadate. This will evaluate the ability of the test ASM to stimulate BCRP's baseline ATPase activity.

[6] = at all the tested concentrations, hCMEC/D3 monolayer
[7] = 5 μM, hCMEC/D3 monolayer, 1 μM Ko143
[8] = 10 μM, hCMEC/D3 monolayer, 1 μM Ko143

NC(=O)N1c2ccccc2C=Cc2ccccc21 [CBZ, carbamazepine]
transport by BCRP (conclusion of bidirectional transport assay) (BCRP [1]; hCMEC/D3 monolayer): not | Papp A→B at 2 h, 21 μM (BCRP [1]; pH 7.4): 3.37 ×10⁻⁶ cm/s | Papp A→B at 2 h, 42 μM (BCRP [1]; pH 7.4): 3.37 ×10⁻⁶ cm/s | Papp B→A at 2 h, 21 μM (BCRP [1]; pH 7.4): 4.27 ×10⁻⁶ cm/s | Papp B→A at 2 h, 42 μM (BCRP [1]; pH 7.4): 4.04 ×10⁻⁶ cm/s | efflux ratio at 2 h (BCRP [1]; [6]): < 1.5 | efflux ratio at 2 h, 21 μM (BCRP [1]; pH 7.4, Efflux ratio (ER), hCMEC/D3 without inhibitor Ko143, 21 μM, hCMEC/D3 monolayer): 1.23 | efflux ratio at 2 h, 42 μM (BCRP [1]; pH 7.4, Efflux ratio (ER), hCMEC/D3 without inhibitor Ko143, 42 μM, hCMEC/D3 monolayer): 1.18 | Papp A→B at 2 h, 21 μM (BCRP [1]; pH 7.4, with Ko143 1 μM): 4.72 ×10⁻⁶ cm/s | Papp A→B at 2 h, 42 μM (BCRP [1]; pH 7.4, with Ko143 1 μM): 3.82 ×10⁻⁶ cm/s | Papp B→A at 2 h, 21 μM (BCRP [1]; pH 7.4, with Ko143 1 μM): 3.03 ×10⁻⁶ cm/s | Papp B→A at 2 h, 42 μM (BCRP [1]; pH 7.4, with Ko143 1 μM): 4.27 ×10⁻⁶ cm/s | efflux ratio at 2 h, 21 μM (BCRP [1]; pH 7.4, with Ko143 1 μM, Efflux ratio (ER), hCMEC/D3 with inhibitor Ko143, 21 μM, hCMEC/D3 monolayer, 1 μM Ko143): 0.98 | efflux ratio at 2 h, 42 μM (BCRP [1]; pH 7.4, with Ko143 1 μM, Efflux ratio (ER), hCMEC/D3 with inhibitor Ko143, 42 μM, hCMEC/D3 monolayer, 1 μM Ko143): 1.12 | intracellular accumulation of BPZ in hCMEC/D3 cells (BCRP [2]): did not affect | stimulation of BCRP ATPase activity (BCRP [3]): no significant stimulation | Therapeutic plasma concentration range [4]: 15 to 45 µM

O=C1CC(=O)N(c2ccccc2)c2cc(Cl)ccc2N1 [DCLB, N‐desmethyl clobazam]
Efflux ratio (ER), hCMEC/D3 without inhibitor Ko143 (BCRP [1]; 5 μM, hCMEC/D3 monolayer): 2 | Papp A-->B, hCMEC/D3 without inhibitor Ko143 (BCRP [1]; 5 μM, hCMEC/D3 monolayer): 2.83 ×10⁻⁶ cm/s | Papp B-->A, hCMEC/D3 without inhibitor Ko143 (BCRP [1]; 5 μM, hCMEC/D3 monolayer): 5.66 ×10⁻⁶ cm/s | Efflux ratio (ER), hCMEC/D3 with inhibitor Ko143 (BCRP [1]; [7]): ~1 | Papp A-->B, hCMEC/D3 with inhibitor Ko143 (BCRP [1]; [7]): 5.66 ×10⁻⁶ cm/s | Papp B-->A, hCMEC/D3 with inhibitor Ko143 (BCRP [1]; [7]): 5.66 ×10⁻⁶ cm/s | Efflux ratio (ER), hCMEC/D3 without inhibitor Ko143 (BCRP [1]; 5 μM, hCMEC/D3 monolayer, listed as N‐desmethyl clobazam): 2.0 | Efflux ratio (ER), hCMEC/D3 without inhibitor Ko143 (BCRP [1]; 10 μM, hCMEC/D3 monolayer): 2 | Papp A-->B, hCMEC/D3 without inhibitor Ko143 (BCRP [1]; 10 μM, hCMEC/D3 monolayer): 2.83 ×10⁻⁶ cm/s | Papp B-->A, hCMEC/D3 without inhibitor Ko143 (BCRP [1]; 10 μM, hCMEC/D3 monolayer): 5.66 ×10⁻⁶ cm/s | Efflux ratio (ER), hCMEC/D3 with inhibitor Ko143 (BCRP [1]; [8]): ~1 | Papp A-->B, hCMEC/D3 with inhibitor Ko143 (BCRP [1]; [8]): 2.83 ×10⁻⁶ cm/s | Papp B-->A, hCMEC/D3 with inhibitor Ko143 (BCRP [1]; [8]): 2.83 ×10⁻⁶ cm/s | Efflux ratio (ER), hCMEC/D3 without inhibitor Ko143 (BCRP [1]; 10 μM, hCMEC/D3 monolayer, listed as N‐desmethyl clobazam): 2.0 | Efflux ratio (ER) without inhibitor (BCRP [1]; [6]): above 1.5 | Efflux ratio (ER) in the presence of Ko143 (BCRP [1]; at all the tested concentrations, hCMEC/D3 monolayer, 1 μM Ko143): ~1 | transport by BCRP (conclusion of bidirectional transport assay) (BCRP [1]; hCMEC/D3 monolayer): transports | stimulation of BCRP ATPase activity (activation assay) (BCRP [5]): significantly stimulated | BPZ accumulation in hCMEC/D3 cells (BCRP [2]; 1 and 10 µM): significantly increased | Therapeutic plasma concentration range [4]: 1 to 10 µM

CC[C@@H](C(N)=O)N1CCCC1=O [LEVI, levetiracetam]
transport by BCRP (conclusion of bidirectional transport assay) (BCRP [1]; hCMEC/D3 monolayer): not | directional transport (BCRP [1]; hCMEC/D3 monolayer, data not shown): did not show any directional transport | efflux ratio at 2 h (BCRP [1]; [6]): < 1.5 | intracellular accumulation of BPZ in hCMEC/D3 cells (BCRP [2]): did not affect | stimulation of BCRP ATPase activity (BCRP [3]): no significant stimulation | Therapeutic plasma concentration range [4]: 35 to 120 µM
